What all share (type): in vivo
One assay has as its system db/db mice. Briefly: DKD mouse model. As to conditions: 30 mg/Kg once daily; for albuminuria (albumin to creatinine ratio): vs db/db vehicle. The method, then: B6.BKS^db/db and B6.BKS^db/+ mice were purchased from the Jackson laboratory. At the age of 14 weeks, mice started receiving vehicle or the ABCA1 inducer Cpd A (30 mg/Kg) by oral gavage once daily for 4 weeks. Body weight measurements and urine collection was performed every week. Mice were sacrificed at 18 weeks old, blood was collected and tissues were processed and analyzed as described below.
(§1) Spot urine samples were collected for all mice at baseline and time of sacrifice. Urinary albumin and creatinine were determined using an albumin ELISA kit (Bethyl laboratories) and a colorimetric assay for creatinine determination (Stanbio). Albuminuria was calculated and expressed as μg of albumin divided by mg of creatinine. For diabetic mouse model, weight and glycaemia were measured on a bi-weekly basis.
Kidney cortex sections were embedded in OCT for further analysis of immunofluorescent staining and lipid droplet. Specifically, for determination of podocyte number per glomerular cross-section was determined using 4 μm-thick tissue sections that were cut and stained with WT1 antibody (1:200, Santa Cruz) and prolong GOLD DAPI mounting media. Images were acquired with confocal microscopy using a Leica SP5 inverted microscope with the 40× wet objective. 20 glomeruli per mouse were quantified.
Electron microscopy. For transmission electron microscopy kidney cortex sections were placed in 4% paraformaldehyde, 1% gluteraldehyde in 0.1 M phosphate buffer (pH 7.4). Foot processes were quantified per 1 μm of the glomerular basement membrane.
(§2) Renal lipids species assays. Kidney cortex sections were snap frozen and utilized for lipid extraction and cholesterol content determination. The tissue was homogenized in 2 mM potassium phosphate buffer in a glass douncer on ice. Lipids in 100 μl homogenate (˜5-10 mg tissue) were extracted with 1 ml hexane:isopropanol (3:2) for two sequential 30-minute extractions. The solvent containing lipids was then dried in Nitrogen atmosphere. Lipids were then reconstituted using isopropanol: NP-40 (9:1) and cholesterol content was quantified using the Amplex red cholesterol assay kit (Invitrogen) according to the manufacturers protocol. Triglycerides in lipid extracts were assayed with a colorimetric kit according to manufacturer's instructions (Cayman). Total cholesterol and cholesterol esters were assayed using an enzymatic fluorometric method. For total cholesterol renal lipid extracts were diluted in assay buffer (100 mM potassium phosphate, 50 mM NaCl, 5 mM cholic acid, 0.1% […], pH 7.4) and incubated with same buffer supplemented with a final concentration of 1 U/ml cholesterol oxidase, 1 U/ml cholesterol esterase, 1 U/ml horseradish peroxidase, and 75 μM Amplex Red. The reactions were incubated at 37° C. for 30 min in a black opaque 96 well plate (Greiner) and fluorescence was measured in a microplate reader (Spectramax i3X, Molecular Devices) using 530 nm excitation and 580 emission.
(§3) Cholesterol esters were assayed using a direct method described by Mizoguchi et al (Mizoguchi, 2004). Briefly 150 μl of FC decomposition reagent (45 U/ml bovine catalase and 1 U/ml cholesterol oxidase, in assay buffer described above) was added to 25 μl of sample containing up to 1 mM total cholesterol. Free cholesterol was allowed to decompose overnight at 37° C. and then 75 μl of 4× cholesterol ester detection reagent (1 U/ml cholesterol oxidase, 4 U/ml cholesterol esterase, 24 U/ml horseradish peroxidase, 300 μM Amplex Red) was added. Reaction was incubated at 37° C. for 30 min and fluorescence was measured as described above for total cholesterol. 1 mM of cholesterol and 5 μM of cholesterol oleate standards were included as internal controls to validate assay sensibility and specificity.
Pathological evaluation. Kidney cortex sections were paraffin-embedded and cut at 4 μm thick for periodic acid-Schiff (PAS) and HE. […]

In assay [1] the test system is 129 Col4a3 KO mice. In words: Alport mouse model, treatment from 4 weeks of age. The method, then: (§4) 129 Col4a3^tm1/Dec/J mice were purchased from Jackson Labs and bred to generate Col4a3 KO mice. Mice were genotyped and selected using the primers: F ([…]), R ([…]) and Rm ([…]) in a PCR reaction (94 C for 5 min, followed by 30 cycles of 30 sec at 95 C, 15 sec at 60 C and 30 sec 72 C, and 1 min at 72 C). 129 Col4A3-KO mice were divided into two groups of 5 mice (males and females) each. At the age of 4 weeks, mice started receiving either vehicle or Cpd G (100 mg/Kg) by oral gavage once daily for 4 weeks. Body weight measurements and spot urine collection was performed once a week. Animals were sacrificed at the end of the treatment at the age of 8 weeks. A late study was also performed to evaluate if treatment of Col4A3-KO mice at time of established disease would prolong mice survival. In this study, mice were treated with Cpd G (100 mg/Kg/day) by daily oral gavage starting at 6 weeks of age and survival was assessed.
as §1
Lipid droplet staining Filtered Oil-Red O-Isopropanol solution (Electron Microscopy Science, PA) was diluted with water (6:4). 4 μm kidney sections were incubated with 100 μl freshly prepared Oil-Red O solution (ORO) for 15 minutes and counterstained with Hematoxylin Harris Hg Free (VWR, PA) to detect lipid deposition. Glomeruli staining was evaluated using a light microscope (Olympus BX 41, Tokyo, Japan).
as §2
as §3, with “specificity. […]” for “specificity.”

For assay [2], the system named is 129 Col4a3 KO mice. In words: Alport mouse model, late study of survival, treatment from 6 weeks of age. The settings on record: 100 mg/Kg/day oral gavage started in 6 weeks old mice. The procedure:
as §4

[3] abbreviates: 100 mg/Kg once daily, 4 weeks from age 4 weeks, vs vehicle.

“Also recorded” adds a separate entry of the source.

The values that follow come from patent US20210275514A1, “COMPOUNDS FOR USE IN TREATING KIDNEY DISORDERS” (Hoffmann-La Roche Inc., priority 2018, published 2021).

For the compound `O=C(N[C@@H]1CCCC[C@H]1O)c1ccc(OCC(F)(F)F)c(-c2ccc(Cl)c(Cl)c2)n1` [Cpd A, 6-(3,4-Dichlorophenyl)-N-[(1R,2R)-2-hydroxycyclohexyl]-5-(2,2,2-trifluoroethoxy)pyridine-2-carboxamide], in the assay on db/db mice (4 weeks), the “Blood urea nitrogen (BUN)” value was “significantly improved”, the “cholesterol esters in kidney cortex” value is “significant reduction”, the “mesangial expansion (PAS stained sections)” value is “improved” and the “podocyte foot process effacement (TEM)” value is given as “improved”. Further, the “podocyte number (WT1 positive cells)” value in the assay with db/db mice (4 weeks) is “improved”. In addition, the “albuminuria (albumin to creatinine ratio)” value in the assay on db/db mice (after four weeks of treatment (18 weeks)) is on record as “even further reduction”. Moreover, the “albuminuria (albumin to creatinine ratio)” value in the assay on db/db mice (after two weeks of treatment (16 weeks)) is given as “reduction in albuminuria”.
As for `O=C(N[C@@H]1CCCC[C@H]1O)c1cnc(OCC(F)(F)F)c(-c2ccc(Cl)c(Cl)c2)c1` [Cpd G, 5-(3,4-dichloro-phenyl)-N-((1R,2R)-2-hydroxy-cyclohexyl)-6-(2,2,2-trifluoro-ethoxy)-nicotinamide], the “progression to ESRD” value with 129 Col4a3 KO mice [1] (100 mg/Kg once daily, 4 weeks from age 4 weeks) was “delays progression to end stage renal disease; also recorded: delayed progression to ESRD”. Moreover, in the assay with 129 Col4a3 KO mice [1] (setting [3]), the Albuminuria result is recorded as “significantly less”, the BUN entry is on record as “significantly less”, the Body weight loss result is given as “lost less weight” and the “mesangial expansion (PAS-stained kidney sections)” value was “significantly less mesangial expansion”. Besides, the serum creatinine entry in the assay with 129 Col4a3 KO mice [1] (setting [3]) is given as “significantly less”. The “lipid accumulation in kidney cortex sections (Oil-red O staining)” value in the assay with 129 Col4a3 KO mice [1] (8 week old mice, 28 days treatment) is reported as “reduced”. Also, the “cholesterol ester in kidneys” value in the assay on 129 Col4a3 KO mice [1] (8 week old mice, 28 days treatment, normalized to total protein) is on record as “reduces esterified cholesterol accumulation; also recorded: significantly reduced”. Further, the increased life span in the assay on 129 Col4a3 KO mice [2] is about 15%.
